Reference: patent publication US9969726B2, “Metabotropic glutamate receptor negative allosteric modulators (NAMS) and uses thereof” (Sanford-Burnham Medical Research Institute, priority 2014, dated 2018)
Read-outs that look alike come from different tables or passages of the source.

Assays:
rat mGlu2 receptor = rat mGlu2 receptor (Rattus norvegicus (Rat), UniProt P31421); test: mGlu2 in vitro GIRK thallium flux assay; format: cell-based; settings: NAM, EC80 glutamate, HEK-293 GIRK cells
Method: (§1) All cell culture reagents were purchased from Invitrogen Corp. (Carlsbad, Calif.) unless otherwise noted. Compound activity at the group II (mGlu2 and mGlu3) mGlus was assessed using thallium flux through GIRK channels. Briefly, cells were plated into 384-well, black-walled, clear-bottomed poly-D-lysine-coated plates at a density of 15,000 cells/20 μL/well in DMEM containing 10% dialyzed FBS, 20 mM HEPES, and 100 units/mL penicillin/streptomycin (assay media). Plated cells were incubated overnight at 37° C. in the presence of 5% CO2. […] Cells were incubated for 1 h at room temperature, and the dye exchanged to assay buffer using an ELX405, leaving 20 μL/well. Test compounds were diluted to 2 times their final desired concentration in assay buffer (0.3% DMSO final concentration). […] Cell plates and compound plates were loaded onto a kinetic imaging plate reader (FDSS 6000 or 7000; Hamamatsu Corporation, Bridgewater, N.J.). Appropriate baseline readings were taken (10 images at 1 Hz; excitation, 470±20 nm; emission, 540±30 nm) and test compounds were added in a 20 μL volume and incubated for either 2.5 min or 60 min as indicated before the addition of 10 μL of thallium buffer with or without agonist. After the addition of agonist, data were collected for approximately an additional 2.5 min. Data were analyzed using Excel (Microsoft Corp, Redmond, Wash.). The slope of the fluorescence increase beginning 5 s after thallium/agonist addition and ending 15 s after thallium/agonist addition was calculated, corrected to vehicle and maximal agonist control slope values, and plotted in using either XLfit (ID Business Solutions Ltd) or Prism software (GraphPad Software, San Diego, Calif.) to generate concentration-response curves. Potencies were calculated from fits using a four-point parameter logistic equation. For concentration-response curve experiments, compounds were serially diluted 1:3 into 10 point concentration response curves and were transferred to daughter plates using an Echo acoustic plate reformatter (Labcyte, Sunnyvale, Calif.). Test compounds were applied and followed by EC80 concentrations of glutamate.

rat mGlu3 receptor = rat mGlu3 receptor (Rattus norvegicus (Rat), UniProt P31422); test: mGlu3 in vitro GIRK thallium flux assay; format: cell-based; settings: NAM; 2.5 min compound incubation; EC80 glutamate; HEK-293 GIRK cells
Sequence of rat mGlu3 receptor (P31422 23-879): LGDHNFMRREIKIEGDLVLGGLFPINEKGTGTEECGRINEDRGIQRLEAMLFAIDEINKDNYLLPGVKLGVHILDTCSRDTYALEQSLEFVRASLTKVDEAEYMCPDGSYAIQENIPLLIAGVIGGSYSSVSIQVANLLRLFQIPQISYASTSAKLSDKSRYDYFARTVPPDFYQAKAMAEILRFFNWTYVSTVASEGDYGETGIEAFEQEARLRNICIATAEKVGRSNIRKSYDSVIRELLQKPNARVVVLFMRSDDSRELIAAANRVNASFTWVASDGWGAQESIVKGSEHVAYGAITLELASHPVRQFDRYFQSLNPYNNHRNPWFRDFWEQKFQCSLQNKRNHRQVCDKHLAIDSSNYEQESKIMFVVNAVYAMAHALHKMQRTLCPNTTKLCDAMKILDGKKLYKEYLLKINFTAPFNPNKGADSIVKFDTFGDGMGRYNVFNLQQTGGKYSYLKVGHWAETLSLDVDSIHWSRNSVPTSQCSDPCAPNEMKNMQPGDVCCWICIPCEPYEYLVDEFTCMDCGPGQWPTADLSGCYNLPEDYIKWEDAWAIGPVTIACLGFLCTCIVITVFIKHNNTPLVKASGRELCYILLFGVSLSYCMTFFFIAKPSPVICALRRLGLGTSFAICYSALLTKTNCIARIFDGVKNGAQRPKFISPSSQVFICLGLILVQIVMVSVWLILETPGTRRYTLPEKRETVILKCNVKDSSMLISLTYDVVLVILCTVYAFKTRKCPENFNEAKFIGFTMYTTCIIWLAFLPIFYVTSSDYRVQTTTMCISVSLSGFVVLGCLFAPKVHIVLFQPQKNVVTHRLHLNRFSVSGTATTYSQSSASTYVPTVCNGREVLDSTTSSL
Method: as §1

[1] = mGlu2 EC50 (μM) (60 min), 60 min compound incubation
[2] = 2.5 min compound incubation, read-out: mGlu2 EC50 (μM) (2.5 min)
[3] = read-out: mGlu2 EC50 (μM) (60 min), 60 min compound incubation

Sequence of rat mGlu2 receptor (P31421 19-872): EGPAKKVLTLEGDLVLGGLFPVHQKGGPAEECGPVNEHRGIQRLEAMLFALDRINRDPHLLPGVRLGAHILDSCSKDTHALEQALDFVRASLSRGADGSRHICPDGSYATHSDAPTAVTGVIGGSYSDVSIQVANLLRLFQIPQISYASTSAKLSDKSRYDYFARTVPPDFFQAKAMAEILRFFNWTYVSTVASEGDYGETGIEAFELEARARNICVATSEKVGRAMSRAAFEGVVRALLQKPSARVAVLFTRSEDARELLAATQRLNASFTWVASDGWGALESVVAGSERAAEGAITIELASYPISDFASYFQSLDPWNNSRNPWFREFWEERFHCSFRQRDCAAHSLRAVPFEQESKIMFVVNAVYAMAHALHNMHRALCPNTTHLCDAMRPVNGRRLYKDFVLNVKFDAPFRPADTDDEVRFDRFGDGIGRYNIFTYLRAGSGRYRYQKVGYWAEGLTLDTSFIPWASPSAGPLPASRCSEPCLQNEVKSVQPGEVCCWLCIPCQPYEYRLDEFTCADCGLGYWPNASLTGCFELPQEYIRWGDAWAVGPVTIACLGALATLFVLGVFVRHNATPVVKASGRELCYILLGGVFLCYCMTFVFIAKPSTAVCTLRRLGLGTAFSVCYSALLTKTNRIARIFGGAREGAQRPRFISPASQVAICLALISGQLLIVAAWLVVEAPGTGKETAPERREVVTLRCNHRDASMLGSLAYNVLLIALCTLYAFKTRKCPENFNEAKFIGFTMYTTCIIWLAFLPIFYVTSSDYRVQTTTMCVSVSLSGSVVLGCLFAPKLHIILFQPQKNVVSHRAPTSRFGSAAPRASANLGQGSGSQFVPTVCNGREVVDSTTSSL

Row | SMILES | EC50 (rat mGlu2 receptor; [1]) | EC50 (rat mGlu2 receptor; [2]) | EC50 (rat mGlu3 receptor) | EC50 (rat mGlu2 receptor; [3])
1 | COC(=O)c1cccc(C2CC(=O)Nc3cc(C(F)(F)F)c(C)cc3N2)c1 (racemic) [Example 151, (±)-Methyl 3-(8-methyl-4-oxo-7-(trifluoromethyl)-2,3,4,5-tetrahydro-1H-benzo[b][1,4]diazepin-2-yl)benzoate] | > 10 µM | – | – | –
2 | Cc1cc2c(cc1C(F)(F)F)NC(=O)CC(c1cccc(CCCO)c1)N2 (racemic) [Example 154, 4-(3-(3-Hydroxypropyl)phenyl)-7-methyl-8-(trifluoromethyl)-4,5-dihydro-1H-benzo[b][1,4]diazepin-2(3H)-one] | 4.43 µM | > 10 µM | > 10 µM | –
3 | Cc1cc(-c2cccc(C3CC(=O)Nc4cc(C(F)(F)F)c(C)cc4N3)c2)cc(C)n1 (racemic) [Example 156, 4-(3-(2,6-Dimethylpyridin-4-yl)phenyl)-7-methyl-8-(trifluoromethyl)-4,5-dihydro-1H-benzo[b][1,4]diazepin-2(3H)-one] | 3.7 µM | > 10 µM | > 10 µM | –
4 | O=C1CC(c2cccc(Br)c2)Nc2ccc(NC(=O)OCc3ccccc3)cc2N1 (racemic) [Example 158, Benzyl (2-(3-bromophenyl)-4-oxo-2,3,4,5-tetrahydro-1H-benzo[b][1,4]diazepin-7-yl)carbamate] | > 10 µM | – | – | –
5 | N#Cc1cc(C2CC(=O)Nc3cc(C(=O)O)ccc3N2)ccn1 (racemic) [Example 160, 2-(2-Cyanopyridin-4-yl)-4-oxo-2,3,4,5-tetrahydro-1H-benzo[b][1,4]diazepine-7-carboxylic Acid] | > 30 µM | – | – | –
6 | N#Cc1cccc(C2CC(=O)Nc3cc(C(=O)O)ccc3N2)c1 (racemic) [Example 161, 2-(3-Cyanophenyl)-4-oxo-2,3,4,5-tetrahydro-1H-benzo[b][1,4]diazepine-7-carboxylic Acid] | > 30 µM | – | – | –
7 | Cc1cc(-c2cccc(C3CC(=O)Nc4cc(NC(=O)OCc5ccccc5)ccc4N3)c2)cc(C)n1 (racemic) [Example 162, Benzyl (2-(3-(2,6-dimethylpyridin-4-yl)phenyl)-4-oxo-2,3,4,5-tetrahydro-1H-benzo[b][1,4]diazepin-7-yl)carbamate] | 5.36 µM | > 10 µM | > 10 µM | –
8 | Cc1cc2c(cc1C(F)(F)F)NC(=O)CC(c1cccc(Oc3ncccn3)c1)N2 (racemic) [Example 164, 7-Methyl-4-(3-(pyrimidin-2-yloxy)phenyl)-8-(trifluoromethyl)-4,5-dihydro-1H-benzo[b][1,4]diazepin-2(3H)-one] | 1.56 µM | > 10 µM | 5.57 µM | –
9 | Cc1cc2c(cc1C(F)(F)F)NC(=O)CC(c1cccc(Oc3ccccn3)c1)N2 (racemic) [Example 165, 7-Methyl-4-(3-(pyridin-2-yloxy)phenyl)-8-(trifluoromethyl)-4,5-dihydro-1H-benzo[b][1,4]diazepin-2(3H)-one] | 1.47 µM | 4.37 µM | 3.47 µM | –
10 | Cc1cc2c(cc1C(F)(F)F)NC(=O)CC(c1cccc(-n3ccc4ccccc43)c1)N2 (racemic) [Example 167B, 4-(3-(1H-Indol-1-yl)phenyl)-7-methyl-8-(trifluoromethyl)-4,5-dihydro-1H-benzo[b][1,4]diazepin-2(3H)-one] | > 10 µM | – | – | –
11 | C#CCNC(=O)c1cccc(C2CC(=O)Nc3cc(C(F)(F)F)c(C)cc3N2)c1 (racemic) [Example 170B, 3-(8-Methyl-4-oxo-7-(trifluoromethyl)-2,3,4,5-tetrahydro-1H-benzo[b][1,4]diazepin-2-yl)-N-(prop-2-yn-1-yl)benzamide] | 3.68 µM | – | – | –
12 | Cc1cc2c(cc1C(F)(F)F)NC(=O)CC(c1cccc(OCc3ccccc3)c1)N2 (racemic) [Example 178, 4-(3-(Benzyloxy)phenyl)-7-methyl-8-(trifluoromethyl)-4,5-dihydro-1H-benzo[b][1,4]diazepin-2(3H)-one] | > 10 µM | – | – | –
13 | Cc1cc2c(cc1C(F)(F)F)NC(=O)CC(c1cccc(CCC(=O)O)c1)N2 (single isomer, unassigned) [Example 155B, 3-(3-(8-methyl-4-oxo-7-(trifluoromethyl)-2,3,4,5-tetrahydro-1H-benzo[b][1,4]diazepin-2-yl)phenyl)propanoic acid] | > 10 µM | – | – | –
14 | Cc1cc2c(cc1C(F)(F)F)NC(=O)CC(c1cccc(Sc3ncccn3)c1)N2 (single isomer, unassigned) [Example 166B, 7-Methyl-4-(3-(pyrimidin-2-ylthio)phenyl)-8-(trifluoromethyl)-4,5-dihydro-1H-benzo[b][1,4]diazepin-2(3H)-one] | – | 8.47 µM | 4.53 µM | 1.23 µM
15 | Cc1cc2c(cc1C(F)(F)F)NC(=O)CC(c1cccc(C(N)=O)c1)N2 (single isomer, unassigned) [Example 168A, 3-(8-Methyl-4-oxo-7-(trifluoromethyl)-2,3,4,5-tetrahydro-1H-benzo[b][1,4]diazepin-2-yl)benzamide] | > 10 µM | – | – | –
16 | Cc1cc2c(cc1C(F)(F)F)NC(=O)CC(c1cccc(Oc3cc(F)cc(F)c3)c1)N2 (single isomer, unassigned) [Example 174B, 4-(3-(3,5-Difluorophenoxy)phenyl)-7-methyl-8-(trifluoromethyl)-4,5-dihydro-1H-benzo[b][1,4]diazepin-2(3H)-one] | – | – | – | > 10 µM
17 | C#Cc1cccc(C2CC(=O)Nc3cc(C(F)(F)F)c(C)cc3N2)c1 (single isomer, unassigned) [Example 175B, 4-(3-Ethynylphenyl)-7-methyl-8-(trifluoromethyl)-4,5-dihydro-1H-benzo[b][1,4]diazepin-2(3H)-one] | 4.47 µM | – | – | –
18 | NS(=O)(=O)c1cccc(-c2cccc(-c3csc(-c4ccccc4)n3)c2)c1 [Example 2, 3′-(2-Phenylthiazol-4-yl)biphenyl-3-sulfonamide] | > 10 µM | > 30 µM | > 30 µM | –
19 | O=C(O)c1cc(-c2cccc(-c3cnc(-c4ccccc4)s3)c2)ccc1F [Example 3, 4-Fluoro-3′-(2-phenylthiazol-5-yl)biphenyl-3-carboxylic Acid] | – | > 30 µM | > 10 µM | > 10 µM
20 | Fc1ccc(-c2cccc(-c3nc(-c4ccc(C(F)(F)F)nc4)cc(C(F)(F)F)n3)c2)cc1-c1nn[nH]n1 [Example 124, 2-(4′-Fluoro-3′-(2H-tetrazol-5-yl)-[1,1′-biphenyl]-3-yl)-4-(trifluoromethyl)-6-(6-(trifluoromethyl)pyridin-3-yl)pyrimidine] | – | – | – | 1.29 µM
21 | O=c1[nH]c(-c2cc(-c3cccc(-c4nc(-c5ccoc5)cc(C(F)(F)F)n4)c3)ccc2F)no1 [Example 133, 3-(4-Fluoro-3′-(4-(furan-3-yl)-6-(trifluoromethyl)pyrimidin-2-yl)-[1,1′-biphenyl]-3-yl)-1,2,4-oxadiazol-5(4H)-one] | – | – | – | 0.73 µM
22 | Fc1ccc(-c2cccc(-c3nc(-c4ccoc4)cc(C(F)(F)F)n3)c2)cc1-c1noc(=S)[nH]1 [Example 134, 3-(4-Fluoro-3′-(4-(furan-3-yl)-6-(trifluoromethyl)pyrimidin-2-yl)-[1,1′-biphenyl]-3-yl)-1,2,4-oxadiazole-5(4H)-thione] | – | – | – | > 10 µM
23 | O=c1[nH]c(-c2cc(-c3cccc(-c4nc(-c5ccoc5)cc(C(F)(F)F)n4)c3)ccc2F)ns1 [Example 135, 3-(4-Fluoro-3′-(4-(furan-3-yl)-6-(trifluoromethyl)pyrimidin-2-yl)-[1,1′-biphenyl]-3-yl)-1,2,4-thiadiazol-5(4H)-one] | – | – | – | > 10 µM
24 | Cc1cccc(C#Cc2cccc(C3=Nc4cc(C)c(C(F)(F)F)cc4NC(=O)C3)c2)n1 [Example 138, 7-Methyl-4-(3-((6-methylpyridin-2-yl)ethynyl)phenyl)-8-(trifluoromethyl)-1H-benzo[b][1,4]diazepin-2 (3H)-one] | – | – | – | > 10 µM
25 | Cc1cc2c(cc1C(F)(F)F)NC(=O)CC(c1cccc(Nc3ccccn3)c1)=N2 [Example 141, 7-Methyl-4-(3-(pyridin-2-ylamino)phenyl)-8-(trifluoromethyl)-1H-benzo[b][1,4]diazepin-2(3H)-one] | – | – | – | > 10 µM
26 | CCOC(=O)/C=C/c1cccc(C2=Nc3cc(C)c(C(F)(F)F)cc3NC(=O)C2)c1 [Example 152, Ethyl 3-(3-((E)-7-methyl-2-oxo-8-(trifluoromethyl)-2,3-dihydro-1H-benzo[b][1,4]diazepin-4-yl)phenyl)acrylate] | – | – | – | 3.26 µM
27 | O=C1CC(c2cccc(Br)c2)=Nc2ccc(NC(=O)OCc3ccccc3)cc2N1 [Example 157, Benzyl (4-(3-bromophenyl)-2-oxo-2,3-dihydro-1H-benzo[b][1,4]diazepin-8-yl)carbamate] | – | – | – | > 10 µM
